# Test results taken from US8624034B2, “Fluoro-pyridinone derivatives useful as antibacterial agents” (Pfizer Inc., priority 2011, dated 2014).
# How the values were obtained:
# [1] = system: Escherichia coli EC-1: VOGEL, mouse virulent; assay: MIC determination, EC-1; format: cell-based; conditions: Escherichia coli, read-out: EC-1 (MIC), Table 2, lower of duplicate values
# Outline: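 Duplicate runs differing by more than 2-fold were repeated, and otherwise the lower MIC was kept. The test organism was E. coli EC-1 (VOGEL, mouse virulent), incubated overnight across 2-fold compound dilutions following CLSI guidelines. The MIC was read visually as the lowest concentration inhibiting growth relative to drug-free control.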
# [2] = system: Pseudomonas aeruginosa UI-18: wild-type (PA-7); assay: MIC determination, PA-7; format: cell-based; conditions: Table 2, lower of duplicate values
# Protocol: The in vitro antibacterial activity of compounds described in the Examples was evaluated by minimum inhibitory concentration (MIC) testing according to Clinical and Laboratory Standards Institute (CLSI). See: Clinical and Laboratory Standards Institute. Methods for Dilution Antimicrobial Susceptibility Tests for Bacteria that Grow Aerobically; Approved Standard-Eighth Edition. CLSI document M7-A8 [ISBN 1-56238-689-1]. Clinical and Laboratory Standards Institute, 940 West Valley Road, Suite 1400, Wayne, Pa. 19087-1898 USA, 2006; also Clinical and Laboratory Standards Institute. Performance Standards for Antimicrobial Susceptibility Testing; Twentieth Informational Supplement. CLSI document M100-S20 [ISBN 1-56238-716-2]. Clinical and Laboratory Standards Institute.
# The MIC determination is a standard laboratory method for evaluating the antibacterial activity of a compound. The MIC represents the lowest drug concentration that inhibits visible growth of bacteria following overnight incubation. […] Typically, the drug concentration range is broken down into 2-fold increments (e.g. 0.06 μg/mL, 0.12 μg/mL. 0.25 μg/mL, 0.50 μg/mL, 1.0 μg/mL, etc.) and the various drug concentrations are all individually incubated overnight with approximately the same number of bacteria. The MIC is then determined by visually inspecting the drug effect at each concentration, and identifying the lowest drug concentration that has inhibited bacterial growth as compared to the drug free control. Typically, bacteria continue to grow at drug concentrations lower than the MIC and don't grow at concentrations at and above the MIC.
# The MIC values described in Table 2 and 3 below were derived from assays wherein each test compound was evaluated in duplicate. In cases where the duplicate values varied by 0-2-fold, the lower of the two values was reported below. Generally speaking, if the duplicate values varied by more than 2-fold, the assay was considered non-valid and was repeated until the variation between duplicate runs was ≦2-fold. In line with the CLSI guidelines referred to above, both control organisms and reference compounds were utilized in each MIC assay to provide proper quality control. MIC values generated with these control organisms and reference compounds were required to fall within a defined range for the assay to be considered valid and be included herein. Those skilled in the art will recognize that MIC values can and do vary from experiment to experiment. Generally speaking, it should be recognized that MIC values often vary +/−2-fold from experiment to experiment. While a single MIC is reported for each compound and each microorganism, the reader should not conclude that each compound was only tested once. Several of the compounds were subjected to multiple tests. The data reported in Tables 2 and 3 is reflective of the compounds relative activity and different MICs may have been generated on these occasions in line with the guidelines described above.
# The following bacterial strains were used in these MIC determinations:
# 1) Pseudomonas aeruginosa UI-18: Wild-type, labeled as PA-7 in Tables 2 and 3;
# [3] = system: Acinetobacter baumannii/haemolyticus, multidrug-resistant clinical isolate (AB-3167); assay: MIC determination, AB-3167; format: cell-based; conditions: Table 2, lower of duplicate values
# Outline: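 MIC read visually after overnight growth across 2-fold concentration steps in the CLSI dilution method against the multidrug-resistant clinical isolate. Duplicate determinations, lower value reported when within 2-fold, otherwise repeated; every run checked with control organisms and reference drugs.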
# [4] = target: T1, Pseudomonas aeruginosa LpxC enzyme (Pseudomonas aeruginosa, UniProt P47205); assay: IC50 assay, LpxC enzyme from P. aeruginosa (PA LpxC enzyme IC50); format: biochemical; conditions: Table 2; LpxC enzyme 0.1 nM, 25° C., 1 hour; read-out: PA:IC50
# T1 construct: made in house; host or cells: E. coli
# T1 sequence (P47205 1-303): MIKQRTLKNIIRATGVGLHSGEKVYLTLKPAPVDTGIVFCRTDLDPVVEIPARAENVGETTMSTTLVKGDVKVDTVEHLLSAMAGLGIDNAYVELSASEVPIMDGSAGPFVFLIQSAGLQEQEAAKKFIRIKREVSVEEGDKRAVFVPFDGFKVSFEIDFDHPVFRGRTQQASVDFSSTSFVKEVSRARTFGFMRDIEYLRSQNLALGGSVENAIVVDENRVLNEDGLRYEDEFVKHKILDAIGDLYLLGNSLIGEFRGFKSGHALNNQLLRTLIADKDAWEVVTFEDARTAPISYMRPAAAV
# Outline: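 IC50 values came from percent conversion, referenced to a no-enzyme control. Conversion was read by RapidFire HTMS mass spectrometry after HCl quench of the 1 h enzyme reaction.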
Compound,MIC [1],MIC [2],MIC [3],IC50 [4]
"[2H]C([2H])([2H])c1ccc(-c2cc(=O)n(CC[C@](C)(C(=O)NO)S(C)(=O)=O)cc2F)cc1 [Example 43, (2R)-4-[5-Fluoro-4-(4-trideuteromethylphenyl)-2-oxopyridin-1(2H)-yl]-N-hydroxy-2-methyl-2-(methylsulfonyl)butanamide]",0.25 µg/mL,0.5 µg/mL,> 64 µg/mL,0.653 nM
"COc1cccc(-c2cc(=O)n(CC[C@](C)(C(=O)NO)S(C)(=O)=O)cc2F)c1 [Example 25, (2R)-4-[5-Fluoro-4-(3-methoxyphenyl)-2-oxopyridin-1(2H)-yl]-N-hydroxy-2-methyl-2-(methylsulfonyl)butanamide]",1 µg/mL,2 µg/mL,> 64 µg/mL,0.412 nM
"C[C@@](CCn1cc(F)c(-c2ccc3c(c2)CCCO3)cc1=O)(C(=O)NO)S(C)(=O)=O [Example 8, (2R)-4-[4-(3,4-Dihydro-2H-chromen-6-yl)-5-fluoro-2-oxopyridin-1(2H)-yl]-N-hydroxy-2-methyl-2-(methylsulfonyl)butanamide]",0.5 µg/mL,1 µg/mL,> 64 µg/mL,0.377 nM
"CCCc1ccc(-c2cc(=O)n(CC[C@](C)(C(=O)NO)S(C)(=O)=O)cc2F)cc1 [Example 11, (2R)-4-[5-Fluoro-2-oxo-4-(4-propylphenyl)pyridin-1(2H)-yl]-N-hydroxy-2-methyl-2-(methylsulfonyl)butanamide]",0.125 µg/mL,0.5 µg/mL,> 64 µg/mL,0.482 nM
"COc1ccc(-c2cc(=O)n(CC[C@](C)(C(=O)NO)S(C)(=O)=O)cc2F)cc1F [Example 19, (2R)-4-[5-Fluoro-4-(3-fluoro-4-methoxyphenyl)-2-oxopyridin-1(2H)-yl]-N-hydroxy-2-methyl-2-(methylsulfonyl)butanamide]",2 µg/mL,1 µg/mL,> 64 µg/mL,0.879 nM
"C[C@@](CCn1cc(F)c(-c2ccc(-c3ncco3)cc2)cc1=O)(C(=O)NO)S(C)(=O)=O [Example 42, (2R)-4-[5-Fluoro-4-[4-(1,3-oxazol-2-yl)phenyl]-2-oxopyridin-1(2H)-yl]-N-hydroxy-2-methyl-2-(methylsulfonyl)butanamide]",0.25 µg/mL,1 µg/mL,> 64 µg/mL,0.328 nM
"C[C@@](CCn1cc(F)c(-c2ccc(-n3ncnn3)cc2)cc1=O)(C(=O)NO)S(C)(=O)=O [Example 1, (2R)-4-{5-fluoro-2-oxo-4-[4-(2H-tetrazol-2-yl)phenyl]pyridin-1(2H)-yl}-N-hydroxy-2-methyl-2-(methylsulfonyl)butanamide]",> 64 µg/mL,32 µg/mL,> 64 µg/mL,1.49 nM
"C[C@@](CCn1cc(F)c(-c2ccc(-c3ncccn3)cc2)cc1=O)(C(=O)NO)S(C)(=O)=O [Example 20, (2R)-4-[5-Fluoro-2-oxo-4-(4-pyrimidin-2-ylphenyl)pyridin-1(2H)-yl]-N-hydroxy-2-methyl-2-(methylsulfonyl)butanamide]",0.125 µg/mL,1 µg/mL,> 64 µg/mL,0.945 nM
"C[C@@](CCn1cc(F)c(-c2ccc(OC3COC3)cc2)cc1=O)(C(=O)NO)S(C)(=O)=O [Example 15, (2R)-4-{5-fluoro-4-[4-(oxetan-3-yloxy)phenyl]-2-oxopyridin-1(2H)-yl}-N-hydroxy-2-methyl-2-(methylsulfonyl)butanamide]",16 µg/mL,16 µg/mL,> 64 µg/mL,2.05 nM
"[2H]C([2H])([2H])Oc1ccc(-c2cc(=O)n(CC[C@](C)(C(=O)NO)S(C)(=O)=O)cc2F)cc1 [Example 44, (2R)-4-[5-Fluoro-4-(4-trideuteromethoxyphenyl)-2-oxopyridin-1(2H)-yl]-N-hydroxy-2-methyl-2-(methylsulfonyl)butanamide]",0.25 µg/mL,0.25 µg/mL,> 64 µg/mL,0.664 nM
